Measurements from PubChem BioAssay (NCI).
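GI50 = concentration required for 50% inhibition of growth. The concentration for full growth arrest is given as TGI.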

How the values were obtained:
Assay in all cases: DTP human tumour cell line panel, 384-well format
[1] = system: KM12 colon
[2] = system: SR leukemia
[3] = system: MOLT-4 leukemia
[4] = system: SK-OV-3 ovarian
[5] = system: DU-145 prostate
[6] = system: SF-268 CNS
[7] = system: UO-31 renal
[8] = system: OVCAR-3 ovarian
[9] = system: SK-MEL-28 melanoma
[10] = system: EKVX NSCLC
[11] = system: U251 glioblastoma
[12] = system: NCI-H322M lung
[13] = system: M14 melanoma
[14] = system: HT29 colon
[15] = system: HOP-92 NSCLC
[16] = system: SNB-19 CNS
[17] = system: HCC-2998 colon
[18] = system: SF-539 CNS
[19] = system: HOP-62 NSCLC
[20] = system: 786-0 renal
[21] = system: NCI-H23 lung
[22] = system: OVCAR-8 ovarian
[23] = system: BT-549 breast
[24] = system: NCI/ADR-RES ovarian
[25] = system: SN12C renal
[26] = system: HCT-15 colon
[27] = system: PC-3 prostate
[28] = system: MALME-3M melanoma
[29] = system: NCI-H522 lung

COc1cc2c(Oc3ccc4[nH]c(C)cc4c3F)ncnc2cc1OCCCN1CCCC1
GI50 [1]: 1810 nM
TGI [1]: 3280 nM
GI50 [2]: 1560 nM
TGI [2]: 2910 nM
GI50 [3]: 1380 nM
TGI [3]: 2680 nM
GI50 [4]: 1260 nM
TGI [4]: 2530 nM
GI50 [5]: 1920 nM
TGI [5]: 3770 nM
GI50 [6]: 1660 nM
TGI [6]: 3220 nM
GI50 [7]: 1390 nM
TGI [7]: 2770 nM
GI50 [8]: 1630 nM
TGI [8]: 3060 nM
GI50 [9]: 1660 nM
TGI [9]: 3030 nM
GI50 [10]: 1160 nM
TGI [10]: 2840 nM
GI50 [11]: 1580 nM
TGI [11]: 3000 nM
GI50 [12]: 1790 nM
TGI [12]: 4560 nM
GI50 [13]: 1680 nM
TGI [13]: 3060 nM
GI50 [14]: 1460 nM
TGI [14]: 2800 nM
GI50 [15]: 578 nM
TGI [15]: 1920 nM
GI50 [16]: 1570 nM
TGI [16]: 4710 nM
GI50 [17]: 1590 nM
TGI [17]: 2970 nM
GI50 [18]: 488 nM
TGI [18]: 1830 nM
GI50 [19]: 1500 nM
TGI [19]: 2930 nM
GI50 [20]: 1330 nM
TGI [20]: 2630 nM
GI50 [21]: 1150 nM
TGI [21]: 2800 nM
GI50 [22]: 1580 nM
TGI [22]: 2960 nM
GI50 [23]: 1040 nM
TGI [23]: 2220 nM
GI50 [24]: 2350 nM
TGI [24]: 5900 nM
GI50 [25]: 591 nM
TGI [25]: 2410 nM
GI50 [26]: 1210 nM
TGI [26]: 2530 nM
GI50 [27]: 1770 nM
TGI [27]: 3300 nM
GI50 [28]: 1540 nM
TGI [28]: 2880 nM
GI50 [29]: 1550 nM
TGI [29]: 2910 nM
